Experimental data as given in patent US12351574B2, “Selective ligands for modulation of GIRK channels” (Northeastern University, priority 2018, dated 2025).
Entries after “also recorded” stand apart in the source; their conditions may differ.

Columns and labels:
GIRK1/2 = biological target: T1, GIRK1/2 (UniProt P48542+P48549); assay: two-electrode voltage clamp (TEVC) in Xenopus oocytes expressing GIRK1/2 wild-type; assay type: cell-based, human GIRK1, mouse GIRK2; parameters: expressed in transfected cells; host or cells: Xenopus laevis oocytes (cRNA injection); settings: for activation of GIRK1/2 (in words) / potency/efficacy compared to GAT1508 (in words): concentration-response, FIGS. 34A-34I; for Emax: ML297 considered 100%, read-out: EMAX at GIRK1/2, % relative to ML297; for selectivity for GIRK1/2 over GIRK1/4 (in words) / EC50: TEVC; for selectivity for GIRK1/2 over GIRK1/4 (in words): GIRK1/2 versus GIRK1/4; for EC50: Xenopus oocytes, GIRK1/2 wild-type; for EMAX at GIRK1/2: current normalized to basal current
T1 sequence (P48549 1-501): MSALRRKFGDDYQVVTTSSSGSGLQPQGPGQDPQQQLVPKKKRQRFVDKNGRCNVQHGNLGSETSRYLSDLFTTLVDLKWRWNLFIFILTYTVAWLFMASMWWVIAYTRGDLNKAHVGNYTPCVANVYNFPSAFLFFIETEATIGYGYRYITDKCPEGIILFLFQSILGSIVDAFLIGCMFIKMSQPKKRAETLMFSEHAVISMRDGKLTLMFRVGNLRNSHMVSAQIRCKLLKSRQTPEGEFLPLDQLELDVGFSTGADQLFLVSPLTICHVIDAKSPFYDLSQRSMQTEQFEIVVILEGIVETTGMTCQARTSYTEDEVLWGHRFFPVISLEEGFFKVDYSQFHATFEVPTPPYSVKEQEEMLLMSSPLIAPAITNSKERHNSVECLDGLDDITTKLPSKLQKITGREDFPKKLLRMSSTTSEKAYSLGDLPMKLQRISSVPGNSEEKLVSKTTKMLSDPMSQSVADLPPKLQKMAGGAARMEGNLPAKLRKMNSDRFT
T1 sequence (P48542 1-425): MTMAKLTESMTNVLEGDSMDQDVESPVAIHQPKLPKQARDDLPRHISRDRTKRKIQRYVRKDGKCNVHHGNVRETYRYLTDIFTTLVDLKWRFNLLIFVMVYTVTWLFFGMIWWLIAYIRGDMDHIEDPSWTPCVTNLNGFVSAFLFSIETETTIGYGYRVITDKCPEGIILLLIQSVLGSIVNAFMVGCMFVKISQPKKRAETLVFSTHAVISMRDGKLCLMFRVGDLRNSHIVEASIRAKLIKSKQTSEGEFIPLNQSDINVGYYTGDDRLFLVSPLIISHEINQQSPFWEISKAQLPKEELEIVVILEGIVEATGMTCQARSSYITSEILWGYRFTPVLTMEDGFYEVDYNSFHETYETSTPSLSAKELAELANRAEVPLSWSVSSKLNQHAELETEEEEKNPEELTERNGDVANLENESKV
Excerpt: (§1) Molecular biology: For Xenopus oocyte expression, human GIRK1 and human GIRK4 cDNAs were subcloned into pGEMHE. For mammalian expression, human GIRK1 and human GIRK4 cDNAs were subcloned into pcDNA3 and pcDNA3.1/V5-His B, respectively (Invitrogen). Mouse GIRK2 cDNA was subcloned in the dual-function vector, pXoom. Point mutations were introduced using a standard Pfu-based mutagenesis technique according to the QuikChange protocol (Agilent). Mutations were verified by sequencing.
(§2) Xenopus laevis oocyte expression: Plasmid DNAs of GIRK channel subunits were linearized prior to in vitro transcription. Capped RNAs were transcribed using mMESSAGE mMACHINE T7 Transcription Kit (Thermo Fisher Scientific). Xenopus oocytes were surgically extracted, dissociated and defolliculated by collagenase treatment, and microinjected with 50 nl of a water solution containing 1 ng of each GIRK subunit RNA. For TEVC experiments, oocytes were kept 2 days at 17° C. before recording, while for NPo experiments oocytes were incubated for up to 4 days at 17° C.
(§3) Xenopus laevis oocyte expression: All cDNA constructs in the pGEMHE vector were linearized using the NheI restriction enzyme, whereas those in the pXoom vector were linearized using the XhoI restriction enzyme. Linearized cDNAs were in vitro-transcribed using the mMessage mMachine® kit (Ambion) kit. Complementary RNA (cRNA) concentrations were quantified by optical density. Xenopus oocytes were surgically extracted, dissociated, and defolliculated by collagenase treatment and microinjected with 50 nl of the desired cRNAs diluted in RNAase-free water. The use of Xenopus laevis frogs for this study was approved by the Institutional Animal Care and Use Committee (IACUC) at Northeastern University. All constructs used in this study were injected to achieve between 1-2 ng per oocyte depending on the channel. Oocytes were incubated for 2 days at 18° C.
(§4) Electrophysiology of oocytes: Whole-oocyte currents were measured by conventional two-electrode voltage clamp (TEVC) with a GeneClamp 500 amplifier (Axon Instruments). […] Barium-sensitive currents were normalized to average basal current in the vehicle solutions. The HK solution contained the following: 96 mM KCl, 1 mM NaCl, 1 mM MgCl2, 5 mM KOH/HEPES, pH 7.4. The barium solution consisted of HK+10 mM BaCl2. Five to ten oocytes from the same batch (same frog) were recorded for each group, and the experiments were repeated in at least four batches. Data acquisition and analysis were carried out using pClamp9 (Molecular Devices) and OriginPro (Microcal) software.

GIRK1/4 = biological target: T2, GIRK1/4 (Homo sapiens, UniProt P48544+P48549); assay: two-electrode voltage clamp (TEVC) in Xenopus oocytes expressing GIRK1/4 wild-type; assay type: cell-based; parameters: expressed in transfected cells; host or cells: Xenopus laevis oocytes (cRNA injection); settings: for activation of GIRK1/4 (in words): concentration-response, FIGS. 34A-34I; for Emax: ML297 considered 100%, read-out: EMAX at GIRK1/4, % relative to ML297; for EC50: TEVC, Xenopus oocytes, GIRK1/4 wild-type; for EMAX at GIRK1/4: current normalized to basal current; for modulation of GIRK1/4 channels (in words): Examples 5 and 6, Xenopus oocytes
T2 sequence (P48549 1-501): T1 sequence (P48549 1-501)
T2 sequence (P48544 1-419): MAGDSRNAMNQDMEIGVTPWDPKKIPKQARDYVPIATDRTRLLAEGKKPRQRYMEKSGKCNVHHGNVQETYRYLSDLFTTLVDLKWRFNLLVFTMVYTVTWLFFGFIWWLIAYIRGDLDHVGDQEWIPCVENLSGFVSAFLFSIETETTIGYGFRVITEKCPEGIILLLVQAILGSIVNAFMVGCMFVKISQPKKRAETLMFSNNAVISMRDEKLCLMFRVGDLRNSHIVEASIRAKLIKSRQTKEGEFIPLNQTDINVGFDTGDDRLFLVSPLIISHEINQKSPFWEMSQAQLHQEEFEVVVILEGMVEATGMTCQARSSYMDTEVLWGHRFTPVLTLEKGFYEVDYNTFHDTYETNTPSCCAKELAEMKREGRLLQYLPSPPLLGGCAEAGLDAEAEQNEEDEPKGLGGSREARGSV
Excerpt: as §1, §2, §3, §4

[1] = system: BLA neurons (GIRK currents); assay: whole-cell patch-clamp in acute brain slices, basolateral amygdala (BLA) neurons; assay type: cell-based, rat; settings: 100 ms puff of 100 μM, compared to baseline
Procedure: Electrophysiological recordings from brain slices containing basolateral amygdala (BLA) neurons: Electrophysiology was performed using 150-200 g male Sprague-Dawley rats (Harlan/Envigo, Indianapolis, IN). Rats were group housed in plastic cages in standard housing conditions with ad libitum access to food and water with 12:12 light/dark cycle (lights on at 07:00 h). All experiments were conducted in accordance with the Guide for the Care and Use of Laboratory Animals (Institute for Laboratory Animal Research, The National Academies Press) and the guidelines of the IUPUI Institutional Animal Care and Use Committee. Rats were anesthetized with isoflurane and immediately decapitated. Brains were then rapidly removed, placed in ice-cold oxygenated artificial cerebrospinal fluid solution (ACSF) and coronal slices ([…]) were prepared containing the amygdala. Slices were incubated at 31° C. for 30 min and then returned to room temperature until recording. [ACSF solution in mM: 130 NaCl; 3.5 KCl; 1.1 KH2PO4; 1.3 MgCl2; 2.5 CaCl2; 30 NaHCO3; 10 glucose, 315 mOsm, 7.4 pH]. Cells were identified for recording at 40× magnification using Scientifica Slicescope microscope under DIC illumination (Scientifica, Uckfield, UK). ACSF was warmed to 30° C. and perfused at a rate of 2-3 ml/min during recordings. Compounds were added to ACSF at desired concentrations. Whole-cell patch-clamp recordings were obtained using standard techniques. Borosilicate glass electrodes (WPI, Sarasota, FL) (resistance 3-6 MΩ) were prepared and used for both recording and baclofen application. [Recording internal solution in mM: 140 K-gluconate; 2 KCl; 3 MgCl2; 10 HEPES; 5 Phosphocreatinine; 2 K-ATP; 0.2 Na-GTP, 290 mOsm, 7.4 pH]. In voltage-clamp mode, the cell was adjusted to −50 mV at the beginning of all experiments and 5 min stable baseline was established before treatment. Picospritzer II (Parker Hannifin, Hollis, NH) was utilized for local application of 100 μM GABA-B agonist baclofen in ACSF to activate GIRKs. Baseline and baclofen-induced currents were averaged from three responses per cell and analyzed using ClampFit software (Molecular Devices, San Jose, CA). […] Several control cells were subjected to baclofen at 2 min intervals for 30 min and consistent responses were observed, thus ruling out time-dependent effects.
The inventors employed whole-cell patch-clamp recording in acute brain slices to examine the effect of GAT1508. The inventors utilized brain slices that included the basolateral amygdala (BLA), a limbic structure that has been extensively described to coordinate the acquisition and expression of fear memories. […] Next, the inventors examined the response of BLA neurons to baclofen, a GABAB-receptor agonist that induces GIRK-mediated potassium currents. […]

Row | Structure (SMILES) | activation of GIRK1/2 (in words) (GIRK1/2) | activation of GIRK1/4 (in words) (GIRK1/4) | Emax (GIRK1/2) [%] | selectivity for GIRK1/2 over GIRK1/4 (in words) (GIRK1/2) | EC50 (GIRK1/2) [µM] | potency/efficacy compared to GAT1508 (in words) (GIRK1/2) | EMAX at GIRK1/2 (GIRK1/2) | Emax (GIRK1/4) [%] | EC50 (GIRK1/4) [µM] | EMAX at GIRK1/4 (GIRK1/4) | further results
1 | Cc1cc(NC(=O)Nc2ccc(I)s2)n(-c2ccccc2)n1 [GAT1574, 1-(5-iodothiophen-2-yl)-3-(3-methyl-1-phenyl-1H-pyrazol-5-yl)urea] | poorer activator than the bromine analog; also recorded: negligible | poorer activator than the bromine analog; also recorded: negligible | – | – | – | – | – | – | – | – | –
2 | Cc1cc(NC(=O)Nc2cccs2)n(-c2ccccc2)n1 [GAT1506, 1-(3-methyl-1-phenyl-1H-pyrazol-5-yl)-3-(thiophen-2-yl)urea] | – | – | 155 | lacked selectivity | 17.1 ± 0.28 | less potent than GAT1508 | 3.9±1.04 | 157 | 7.02 ± 0.24 | 1.95±0.21 | –
3 | Cc1cc(NC(=O)Nc2cnc(Br)s2)n(-c2ccccc2)n1 [GAT1530, 1-(2-bromothiazol-5-yl)-3-(3-methyl-1-phenyl-1H-pyrazol-5-yl)urea] | – | – | – | lack of specificity | – | – | – | – | – | – | –
4 | Cc1cc(NC(=O)N/C=C/c2ccccc2)n(-c2ccccc2)n1 [GAT1537] | – | – | – | – | – | – | – | – | – | – | modulation of GIRK1/4 channels (in words) (GIRK1/4): little or no effect
5 | Cc1cc(NC(=O)Nc2sccc2Br)n(-c2ccccc2)n1 [GAT1570, 1-(3-bromothiophen-2-yl)-3-(3-methyl-1-phenyl-1H-pyrazol-5-yl)urea] | much poorer activators; also recorded: negligible | much poorer activators; also recorded: negligible | – | – | – | – | – | – | – | – | –
6 | Cc1cc(NC(=O)Nc2cc(Br)cs2)n(-c2ccccc2)n1 [GAT1502, 1-(4-bromothiophen-2-yl)-3-(3-methyl-1-phenyl-1H-pyrazol-5-yl)urea] | much poorer activators | much poorer activators | 91 | – | 4.41 ± 0.15 | – | 2.70±0.20 | 104 | 3.13 ± 0.24 | 1.63±0.09 | –
7 | Cc1nn(-c2ccccc2)c(NC(=O)Nc2ccc(F)c(F)c2)c1Br [GAT1528] | – | – | – | – | – | – | – | – | – | – | modulation of GIRK1/2 channels (in words) (GIRK1/2; Examples 5 and 6, Xenopus oocytes): no effect on basal activity; modulation of GIRK1/4 channels (in words) (GIRK1/4): selective for GIRK1/4 inhibition against GIRK1/2 channel activity
8 | NCC(CC(=O)O)c1ccc(Cl)cc1 (stereo not drawn) [baclofen, reference compound] | – | – | – | – | – | – | – | – | – | – | current response of BLA neurons (in words) [1]: induced a significant outward current
9 | Cc1cc(NC(=O)Nc2ccc(F)s2)n(-c2ccccc2)n1 [GAT1575, 1-(5-fluorothiophen-2-yl)-3-(3-methyl-1-phenyl-1H-pyrazol-5-yl)urea] | – | – | 210 | less selective between GIRK1/2 and GIRK1/4 than GAT1508 | 9.39 ± 0.12 | highly efficacious but much less potent than GAT1508 | 4.92±0.49 | 192 | 11.2 ± 0.25 | 2.16±0.32 | –
10 | Cc1cc(NC(=O)Nc2ccc(Cl)s2)n(-c2ccccc2)n1 [GAT1501, 1-(5-chlorothiophen-2-yl)-3-(3-methyl-1-phenyl-1H-pyrazol-5-yl)urea] | – | did not show activation of GIRK1/4 at concentrations less than 20 μM; also recorded: negligible | 96 | retained some selectivity | 4.05 ± 0.14 | less potent than GAT1508 for GIRK1/2 | 2.797±0.18 | – | – | – | –
